From patent US20160129077A1, “Use of recombinant ganoderma immunoregulatory protein (rLZ-8) in preparation of drug for treating melanoma” (priority 2013, published 2016)
Like-named read-outs stand apart in the source and are kept apart here. Marks after values point to notes of the source that are not given here.

Assays:
[1] = tested on: B16-F10 lung metastases; test: B16-F10 melanoma lung metastasis model (tail vein injection) in Kunming mice; assay type: in vivo; settings: DTIC 2.5 mg/kg
Excerpt: DMEM, fetal bovine serum, PBS, trypsin-EDTA, DMSO, Tris-HCl buffer with pH 7.6 for rinsing, 0.05% trypsin, rLZ-8, and DTIC.
After the mice were put to death, lungs of the dead mice were dissected out and the number of black spots on surfaces of the lungs, formed by an aggregation of metastasis cell, was counted, so as to calculate the inhibition rate of the drug against the growth of the lung metastasis as: inhibition rate=(an average metastasis number of the negative contrast group−an average metastasis number of the drug administrated group)/the average metastasis number of the negative contrast group×100%. A time and the number of the dead mouse in each experiment group were recorded in detail, especially during administrating the drug continuously, until the negative contrast group was completely dead; and then, the survival states of the mice in the experiment groups and the contrast groups were analyzed. A survival rate was calculated according to the number of the dead mice in the other groups when all the mice of the negative contrast group were dead, based on a formula that survival rate=(a total number of the mice−the number of the dead mice)/the total number of the mice.

[2] = tested on: B16F10 orthotopic tumor
Experimental: The mice were transplanted with a melanoma cells line B16-F10.
The mice melanoma cells B16-F10 were cultured in the DMEM containing 10% fetal bovine serum, at 37° C. in the CO2 thermostat incubator. 200 μl of B16-F10 cell suspension (containing 1×10^7 cells) was slowly subcutaneously injected into a dorsal-ventral side of the mouse through 1 ml syringe, so as to establish a model of mice transplanted with tumors. […] The rLZ-8 was injected once per day; the DTIC was continuously tail-intravenously injected for 5 days and injected for a second time after 3 weeks. During the experiment, living states of the mice were observed; the mice were weighed once every 7 days; blood samples were taken from tail veins of the mice every 2 weeks; volumes of the tumors, subcutaneously injected into the mice, were measured every 2 days; for each group, the tumors were dissected at an end of the experiment and weighed on the balance, with weights recorded. According to a formula that a tumor growth inhibition rate=(an average weight of the tumors of the physiological saline group−an average weight of the tumors of the drug administrated groups)/the average weight of the tumors of the physiological saline group, the inhibition rate of the rLZ-8 upon the growth of the orthotopic tumor was calculated.

[3] = tested on: metastatic melanoma; settings: immune therapy; cited from earlier work
[4] = DTIC 2.5 mg/kg tail i.v., administration for 28 days
[5] = DTIC 2.5 mg/kg, administration for 56 days
[6] = DTIC 2.5 mg/kg, dead mice/animal number

| Molecule | Survival rate when all mice of the negative contrast group were dead ([1]; 87th / 95th day after injecting the tumors) [%] | Tumor metastases inhibition rate ([1]; administration for 28 days) [%] | Tumor metastases inhibition rate ([1]; administration for 56 days) [%] | Tumor volume [2, 4] | Tumor weight [2, 4] [g] | Tumor growth inhibition rate ([2]; DTIC 2.5 mg/kg, administration for 28 days) | Tumor growth inhibition rate [2, 5] | Tumor volume [2, 5] | Tumor weight [2, 5] [g] | Mortality rate (administration for 28 days) [2, 6] | Mortality rate (administration for 56 days) [2, 6] | Body leukocyte number ([2]; tumor-bearing mice, tail vein blood, anti-tumor treatment experiment (28/56 days)) | Positive reaction rate [3] |
| --- | --- | --- | --- | --- | --- | --- | --- | --- | --- | --- | --- | --- | --- |
| CN(C)/N=N/c1[nH]cnc1C(N)=O [DTIC, Dacarbazine, reference compound] | 10 | 32.04±1.27 | 58.43 ± 3.21 | 0.19 ± 0.09** mm^3 | 0.23 ± 0.12 | 81.26 ± 0.27^ % | 64.42 ± 0.41^ % | 0.73 ± 0.21* mm^3 | 0.87 ± 0.26 | 0/10 | 4/10 | greatly decreased the body leukocyte number | – |
| ipilimumab: anti-CTLA-4 antibody, immune therapy for metastatic melanoma | – | – | – | – | – | – | – | – | – | – | – | – | about 10.9% |
